Publication PMC6125145, “Mitochondrial Supercomplexes Do Not Enhance Catalysis by Quinone Channeling” (Cell Metabolism, 2018)

Assays:
Assay type in all cases: biochemical
[1] = target: T1, complex I (CI, NADH:ubiquinone oxidoreductase) (Bos taurus, UniProt P03887+P17694+P42026); test: reverse electron transfer (NAD+ reduction) in bovine heart SMPs, NADH absorbance; conditions: RET assay: 1 mM NAD+, 10 mM succinate, 1 mM MgATP, 50 μg/mL SMPs, pH 7.5, 32 °C, anaerobic; RET direction only, NADH oxidation not inhibited; RET also needs complex II
T1 construct: gene NDUFS2; native enzyme in coupled submitochondrial particles (inverted inner-membrane vesicles) from bovine heart mitochondria; in supercomplexes; with NADH-ubiquinone oxidoreductase 75 kDa subunit, mitochondrial; NADH dehydrogenase [ubiquinone] flavoprotein 1, mitochondrial; NADH dehydrogenase [ubiquinone] flavoprotein 2, mitochondrial; NADH dehydrogenase [ubiquinone] iron-sulfur protein 3, mitochondrial; NADH dehydrogenase [ubiquinone] iron-sulfur protein 8, mitochondrial; NADH-ubiquinone oxidoreductase chain 2; NADH-ubiquinone oxidoreductase chain 3; NADH-ubiquinone oxidoreductase chain 4; NADH-ubiquinone oxidoreductase chain 4L; NADH-ubiquinone oxidoreductase chain 5; NADH-ubiquinone oxidoreductase chain 6
T1 sequence (P17694 34-463): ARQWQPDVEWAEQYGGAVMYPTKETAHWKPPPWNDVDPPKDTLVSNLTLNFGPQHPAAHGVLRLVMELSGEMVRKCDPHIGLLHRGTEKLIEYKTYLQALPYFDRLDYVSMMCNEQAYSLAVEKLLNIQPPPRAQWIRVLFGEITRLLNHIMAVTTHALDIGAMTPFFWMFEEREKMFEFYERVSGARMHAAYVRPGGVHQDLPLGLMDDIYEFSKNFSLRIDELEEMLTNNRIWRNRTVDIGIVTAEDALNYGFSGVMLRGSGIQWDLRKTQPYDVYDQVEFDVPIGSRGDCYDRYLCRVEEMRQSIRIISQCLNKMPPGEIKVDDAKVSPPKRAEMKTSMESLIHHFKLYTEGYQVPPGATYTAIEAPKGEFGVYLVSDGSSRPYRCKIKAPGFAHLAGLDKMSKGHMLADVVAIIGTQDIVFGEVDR
T1 sequence (P03887 whole entry): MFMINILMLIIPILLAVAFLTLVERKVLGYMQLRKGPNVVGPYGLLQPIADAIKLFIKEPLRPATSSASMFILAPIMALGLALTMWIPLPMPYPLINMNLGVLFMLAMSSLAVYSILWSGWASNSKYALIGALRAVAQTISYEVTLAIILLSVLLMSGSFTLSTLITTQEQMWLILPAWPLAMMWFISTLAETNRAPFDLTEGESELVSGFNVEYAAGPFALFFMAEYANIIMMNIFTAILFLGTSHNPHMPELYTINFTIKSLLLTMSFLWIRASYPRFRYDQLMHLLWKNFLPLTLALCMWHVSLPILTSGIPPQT
T1 sequence (P42026 38-216): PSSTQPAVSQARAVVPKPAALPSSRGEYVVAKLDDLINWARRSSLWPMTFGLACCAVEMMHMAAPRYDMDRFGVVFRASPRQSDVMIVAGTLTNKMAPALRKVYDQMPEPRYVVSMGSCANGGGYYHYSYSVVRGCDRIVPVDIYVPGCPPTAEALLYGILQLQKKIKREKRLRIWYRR
T1 sequence (P25708 21-464 partner): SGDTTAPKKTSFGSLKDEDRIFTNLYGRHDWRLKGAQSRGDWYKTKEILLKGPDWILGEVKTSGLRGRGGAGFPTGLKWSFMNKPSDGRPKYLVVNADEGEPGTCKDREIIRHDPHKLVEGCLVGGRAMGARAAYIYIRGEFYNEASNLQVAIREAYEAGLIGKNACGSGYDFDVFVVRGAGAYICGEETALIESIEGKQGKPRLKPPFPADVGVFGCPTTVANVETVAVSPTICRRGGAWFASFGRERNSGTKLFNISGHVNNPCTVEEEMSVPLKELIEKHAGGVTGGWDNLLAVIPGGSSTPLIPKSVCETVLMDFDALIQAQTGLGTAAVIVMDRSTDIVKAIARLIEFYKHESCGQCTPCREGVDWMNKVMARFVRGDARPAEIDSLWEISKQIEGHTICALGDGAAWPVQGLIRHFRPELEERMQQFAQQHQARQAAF
T1 sequence (P15690 24-727 partner): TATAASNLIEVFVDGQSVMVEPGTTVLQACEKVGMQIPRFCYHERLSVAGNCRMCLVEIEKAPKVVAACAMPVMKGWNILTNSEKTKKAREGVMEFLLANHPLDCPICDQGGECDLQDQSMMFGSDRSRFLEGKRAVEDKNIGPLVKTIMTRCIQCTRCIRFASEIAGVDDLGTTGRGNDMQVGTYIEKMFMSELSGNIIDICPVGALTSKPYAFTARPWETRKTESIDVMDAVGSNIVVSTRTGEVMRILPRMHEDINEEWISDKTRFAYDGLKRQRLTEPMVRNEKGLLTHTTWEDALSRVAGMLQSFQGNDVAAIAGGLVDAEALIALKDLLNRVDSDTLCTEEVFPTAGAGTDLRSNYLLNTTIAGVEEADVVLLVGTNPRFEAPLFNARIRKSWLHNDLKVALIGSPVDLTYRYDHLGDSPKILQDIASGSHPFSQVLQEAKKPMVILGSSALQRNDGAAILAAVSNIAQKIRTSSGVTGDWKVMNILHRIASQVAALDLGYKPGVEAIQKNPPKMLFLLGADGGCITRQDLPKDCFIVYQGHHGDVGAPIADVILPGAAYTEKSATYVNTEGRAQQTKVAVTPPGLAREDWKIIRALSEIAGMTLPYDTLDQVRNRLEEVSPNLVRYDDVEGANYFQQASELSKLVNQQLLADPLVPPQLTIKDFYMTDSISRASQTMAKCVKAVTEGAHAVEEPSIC

[2] = target: T2, AOX (alternative oxidase) (Trypanosoma brucei, UniProt Q26710); test: NADH:O2 oxidoreduction of SMPs with added purified AOX, cyanide-insensitive rate; conditions: 300 or 500 nM ascofuranone, 0.1 mg AOX per mg SMP, 200 μM NADH, 400 μM NaCN (500 nM trace) or gramicidin (300 nM), pH 7.5, 32 °C
T2 construct: expressed in E. coli FN102 (hemA deficient), purified in DDM and added to membranes
T2 sequence (Q26710 25-329): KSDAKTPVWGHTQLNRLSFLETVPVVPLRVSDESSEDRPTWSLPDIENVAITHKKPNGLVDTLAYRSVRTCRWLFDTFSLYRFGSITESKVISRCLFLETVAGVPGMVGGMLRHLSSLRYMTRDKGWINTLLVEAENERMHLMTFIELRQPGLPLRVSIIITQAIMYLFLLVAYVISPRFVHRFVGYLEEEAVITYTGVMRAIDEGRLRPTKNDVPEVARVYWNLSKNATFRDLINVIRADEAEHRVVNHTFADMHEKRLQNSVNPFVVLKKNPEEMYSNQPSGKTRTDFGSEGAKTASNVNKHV

[3] = target: T2, AOX (alternative oxidase); test: NADH:O2 oxidoreduction via complex I with AOX added to SMPs or CI-only proteoliposomes; conditions: quinol produced by complex I from endogenous ubiquinone or ubiquinone-10 in proteoliposomes, pH 7.5, 32 °C

Structure (SMILES)	IC50 [1]	NADH:O2 oxidoreduction of SMPs with added purified AOX, cyanide-insensitive rate [2]	NADH:O2 oxidoreduction via complex I with AOX added to SMPs or CI-only proteolip [3]
C/C(=C\Cc1c(O)c(Cl)c(C)c(C=O)c1O)CC/C=C(\C)[C@@H]1CC(=O)C(C)(C)O1 [ascofuranone]	440 ± 40 nM	AOX-catalyzed quinol oxidation is insensitive to cyanide	–
COc1c(O)c(C)c(C/C=C(\C)CC/C=C(\C)CC/C=C(\C)CC/C=C(\C)CC/C=C(\C)CC/C=C(\C)CC/C=C(\C)CC/C=C(\C)CC/C=C(\C)CCC=C(C)C)c(O)c1OC [quinol]	–	–	also observed in synthetic, CI-only proteoliposomes containing ubiquinone-10
